Laboratory results published in US9815788B2, “Anti-angiogenic compounds” (University College Dublin National University of Ireland, …, priority 2012, dated 2017).
Entries after “also recorded” stand apart in the source; their conditions may differ.

Experiments:
[1] = test system: zebrafish intersegmental vessels; test: Quantification of intersegmental vessel number in zebrafish; assay type: in vivo; settings: for inhibition of developmental angiogenesis of intersegmental vessels (number of intersegmental vessels): 10 μM, from 6 hpf; for dose-dependent inhibition of development of intersegmental vessels: decreasing doses 10, 7.5, 5 and/or 1 μM; for inhibition of the number of intersegmental vessels that develop: 5 μM
Experimental: […] Larvae were manually dechorionated, euthanised, and fixed in 4% PFA at 4° C. overnight before analysis. The larvae were then washed with PBS and transferred to depression slides for observation under epi-fluorescence in an Olympus SZX16 fluorescent microscope. The number of intersegmental vessels was counted and the average number was graphed for each drug.
Larvae were manually dechorionated, euthanised, and fixed in 4% PFA at 4° C. overnight before analysis. The larvae were then washed with PBS and transferred to depression slides for observation under epi-fluorescence in an Olympus SZX16 fluorescent microscope. The number of intersegmental vessels was counted and the average number was graphed for each drug.

[2] = test system: human SW480 colorectal cancer cells; test: Proliferation / cell number of SW480 cells (crystal violet); assay type: cell-based; settings: 10 μM, by 96 hours
Experimental: Cells were maintained in RPMI media supplemented with 10% foetal calf serum, penicillin (100 U/ml), streptomycin (100 μg/ml) and amphotericin B (4 μg/ml). A total of 5,000 cells were seeded per well in 96 well plates and left to incubate for 24 hours. The cells were washed in PBS and the media was replaced with solutions containing 10 μM of 5-fluorouracil (5FU), 4H, 11A or 11C. […] At each designated time point, the media was disposed and the cells washed with PBS. The cells were fixed with 1% glutaraldehyde for 20 minutes and then stained with crystal violet for 30 minutes. The plates were blotted and dried overnight. The cells were resuspended with 1% TritonX-100 and shaken for 15 minutes. The absorbance was read on a spectrophotometer at 550 nm.

[3] = test system: explants cultures of human colorectal cancers; test: Angiogenic/inflammatory factor secretion from human colorectal tumour explants (ELISA, multiplex); assay type: cell-based; settings: 10 μM, 72 hours; n=40 patients
Experimental: Human colorectal tumour samples were taken directly from the pathology laboratory after surgery once adequate material was taken for diagnostic testing. The tumour samples were washed and stored in DMSO/tumour conditioning media (TCM). The samples were snap-frozen in liquid nitrogen and stored at −80° C. until compound testing was performed. Prior to compound testing, the tumours were thawed and incubated in fresh TCM for 24 hours. The explants were then treated with 4H, 11A and 11C at […] concentrations for 72 hours. The TCM solutions were collected and stored at −20° C. and the remaining tumour explants were snap-frozen in liquid nitrogen and stored at −80° C. Proteins were extracted from the explants using a nuclear RIPA buffer containing PMSF, sodium orthovandate and protease inhibitors. The explants were homogenised in a PreCellys™ machine. The total protein contents were determined from the resulting lysates using the BCA assay™. […] The secretion of angiogenic cytokines was quantified using sandwich ELISA (DuoSet, R&D) for VEGF, ENA-78, MCP-1 and GROα and a multiplex assay (MSD) was used for the inflammatory cytokines: IL-13, TNF, IL-6 and IL-8. The secretion data were normalised according to the tumour sample's protein content.

[4] = test system: zebrafish hyaloid vasculature; test: Quantification of primary hyaloid vasculature branch number in Tg(fli1:EGFP) zebrafish; assay type: in vivo; settings: for inhibition of developmental angiogenesis of the hyaloid vasculature (number of primary hyaloid vessels): typically 10 μM or 5 μM, from 24 hpf, vs DMSO control
Experimental: (§1) All experiments were carried out under ethical approval granted by the UCD animal research ethics committee. Tg(fli1:EGFP) zebrafish were maintained according to standard procedures on a 14 hr light/10 hr dark cycle at 28° C. Embryos were obtained by natural spawning and developmental stages established by time and morphological criteria. […] Larvae were euthanised, and fixed in 4% PFA at 4° C. overnight before analysis.
Overall patterning of the vasculature (fin, gut and intersegmental vessels) was examined for abnormalities. Right lenses were dissected from the larvae and transferred to depression slides for observation under epi-fluorescence in the Olympus SZX16. Patterning of the hyaloid vessels on the treated larval lenses was compared to DMSO controls and the archetypal pattern previously described (Alvarez et al., 2007; Alvarez et al., 2009).
as §1, with “analysis. Lenses were dissected from the larvae and transferred to depression slides for observation under epi-fluorescence in the Olympus SZX16. Patterning of the hyaloid vessels on the treated larval lenses was compared to DMSO controls and the archetypal pattern previously described (Alvarez et al., 2007; Alvarez et al., 2009).” for “analysis.”

[5] = test system: OE33P radio-sensitive oesophageal adenocarcinoma cells; test: Cell number after 24 hours drug treatment (crystal violet absorbance), OE33P; assay type: cell-based, human; settings: 10 μM
Experimental: (§2) OE33P radio-sensitive and OE33R radio-resistant oesophageal adenocarcinoma cells were used to test the effects of the compounds 11B HCl, […], 11B CC16 HCl, 11B 471 and 11B 268 on cell number. Cells were maintained in RPMI media supplemented with 10% foetal calf serum, penicillin (100 U/ml) and streptomycin (100 gig/ml). A total of 11.000 or 13,000 cells, in 100 μl media, were seeded per well in 24 well plates and left to incubate for 24 hours, with an additional 150 μl media added after 5 hours. The media was replaced with solutions containing 10 μM of 11B HCl, 11B CC11 HCl, 11B CC16 HCl, 11B 471, 11B 268 or fresh media as a control. Each drug had 6 replicates. After 24 hours of treatment, the cells were fixed with 1% glutaraldehyde for 15 minutes and then stained with crystal violet for 30 minutes. The plates were blotted and dried overnight. The cells were resuspended with 1% TritonX-100 and shaken for 15 minutes. The absorbance was read on a spectrophotometer at 590 nm.
(§3) OE33P radiosensitive and OE33R radioresistant cells were used to test the effects of the compound 11B_Z_HCl on toxicity. Cells were maintained in RPMI media supplemented with 10% foetal calf serum, penicillin (100 U/ml) and streptomycin (100 μg/ml). A total of 11,000 cells, in 100 μl media, were seeded per well in 24 well plates and left to incubate for 24 hours, with an additional 150 μl media added after 5 hours. The media was replaced with solutions containing 10 μM of 11B_Z_HCl or fresh media as a control. Each treatment had 6 replicates. After 24 hours of treatment, the cells were fixed with 1% glutaraldehyde for 15 minutes and then stained with crystal violet for 30 minutes. The plates were blotted and dried overnight. The cells were resuspended with 1% TritonX-100 and shaken for 15 minutes. The absorbance was read on a spectrophotometer at 590 nm.

[6] = test system: OE33R radio-resistant oesophageal adenocarcinoma cells; test: Cell number after 24 hours drug treatment (crystal violet absorbance), OE33R; assay type: cell-based, human; settings: 10 μM
Experimental: as §2, §3

[7] = test system: OE33P radiosensitive oesophageal adenocarcinoma cells; test: Quantification of oxidative phosphorylation (OCR, Seahorse), OE33P; assay type: cell-based, human; settings: 10 μM, 24 hours
Experimental: OE33P radiosensitive and OE33R radio-resistant oesophageal adenocarcinoma cells were used to test the effects of the compounds 11B HCl, 11B CC11 HCl, 11B CC16 HCl, 11B 471 and 11B 268 on oxidative phosphorylation. Cells were maintained in RPMI media supplemented with 10% foetal calf serum, penicillin (100 U/ml) and streptomycin (100 μg/ml). A total of 11,000-13,000 cells, in 100 μl media, were seeded per well in 24 well plates and left to incubate for 24 hours, with an additional 150 μl media added after 5 hours. The media was replaced with solutions containing 10 μM of 11B HCl, 11B CC11 HCl, 11B CC16 HCl, 11B 471, 11B 268 or fresh media as a control. Each drug had 6 replicates. After 24 hours of treatment, media was replaced with modified DMEM supplemented with 0.5 mM glucose. Rates of oxidative phosphorylation were determined using Seahorse Biosciences metabolism technology. The media was disposed and the cells washed with PBS. The cells were fixed with 1% glutaraldehyde for 15 minutes and then stained with crystal violet for 30 minutes. The plates were blotted and dried overnight. The cells were resuspended with 1% TritonX-100 and shaken for 15 minutes. The absorbance was read on a spectrophotometer at 595 nm. Rates of oxidative phosphorylation were then normalised to cell number.
OE33P radiosensitive and OE33R radioresistant oesophageal adenocarcinoma cells were used to test the effects of the compound 11B_Z_HCl on oxidative phosphorylation. Cells were maintained in RPMI media supplemented with 10%0/foetal calf serum, penicillin […]) and streptomycin (100 μg/ml). A total of 11,000 cells, in 100 μl media, were seeded per well in 24 well plates and left to incubate for 24 hours, with an additional 150 μl media added after 5 hours. The media was replaced with solutions containing 10 μM of 11B_Z_HCl or fresh media as a control. Each treatment had 6 replicates. After 24 hours of treatment, media was replaced with modified DMEM supplemented with 0.5 mM glucose. Rates of oxidative phosphorylation were determined using Seahorse Biosciences metabolism technology. Rates of oxidative phosphorylation were then normalised to cell number.

Cc1ccc(N2C(=O)CC(NNC(=O)c3ccccc3)C2=O)c(C)c1 (stereo not drawn) [Compound 4H, N′-[1-(2,4-dimethylphenyl)-2,5-dioxo-3-pyrrolidinyl]benzohydrazide]
inhibition of developmental angiogenesis of intersegmental vessels (number of intersegmental vessels) [1]: significant inhibition; also recorded: inhibit developmental angiogenesis of zebrafish intersegmental vessels in a statistically significant manner
dose-dependent inhibition of development of intersegmental vessels [1]: dose-dependent effect
cell number compared to control [2]: did not significantly reduce cell number
levels of ENA-78 secreted [3]: significantly reduced
levels of GRO-α secreted [3]: significantly reduced
levels of IL-6 secreted [3]: significantly reduced
levels of IL-8 secreted [3]: significantly reduced
levels of MCP-1 secreted [3]: significantly reduced; also recorded: significant effects
levels of VEGF secreted [3]: significantly reduced; also recorded: significant effects

O=C(C=Cc1ccc2c(c1)OCO2)NCc1cccnc1 [Compound 11C]
inhibition of the number of primary hyaloid vessels that develop ([4]; 10 μM, n>20): significant inhibition
inhibition of developmental angiogenesis of the hyaloid vasculature (number of primary hyaloid vessels) [4]: inhibit developmental angiogenesis of the zebrafish hyaloid vasculature in a statistically significant manner
inhibition of the number of intersegmental vessels that develop [1]: significant inhibition
inhibition of developmental angiogenesis of intersegmental vessels (number of intersegmental vessels) [1]: significant inhibition; also recorded: inhibit developmental angiogenesis of zebrafish intersegmental vessels in a statistically significant manner
dose-dependent inhibition of development of intersegmental vessels [1]: dose-dependent effect
cell number compared to control [2]: did not significantly reduce cell number
levels of ENA-78 secreted [3]: significantly reduced
levels of GRO-α secreted [3]: significantly reduced
levels of IL-6 secreted [3]: significantly reduced
levels of IL-8 secreted [3]: significantly reduced
levels of MCP-1 secreted [3]: significantly reduced; also recorded: significant effects
levels of TNFα secreted [3]: significantly reduced
levels of VEGF secreted [3]: significant effects

COc1ccccc1C=Cc1ccc2ccccc2n1 [Compound 11B-268, 2-(2-(2-Methoxyphenyl)vinyl)quinoline]
dose-dependent inhibition of development of hyaloid vessels ([4]; decreasing doses 20, 10, 7.5, 5, 2.5, 1 and/or 0.5 μM): dose-dependent effect; also recorded: inhibit developmental angiogenesis of zebrafish hyaloid vasculature in a dose-dependent statistically significant manner
inhibition of developmental angiogenesis of the hyaloid vasculature (number of primary hyaloid vessels) [4]: inhibit developmental angiogenesis of the zebrafish hyaloid vasculature in a statistically significant manner
cell number, measured by % absorbance [5]: did not significantly reduce cell number
cell number, measured by % absorbance [6]: did not significantly reduce cell number
oxygen consumption rate (OCR), a measure of oxidative phosphorylation [7]: significantly reduce

O=c1[nH]cc(F)c(=O)[nH]1 [5-fluorouracil, reference compound]
cell number, % of the control [2]: 60%

(5-bromo-N′-[2-(trifluromethyl)benzylidene]-2-furohydrazide) [Compound 11A]
inhibition of the number of intersegmental vessels that develop [1]: significant inhibition
inhibition of developmental angiogenesis of intersegmental vessels (number of intersegmental vessels) [1]: significant inhibition; also recorded: inhibit developmental angiogenesis of zebrafish intersegmental vessels in a statistically significant manner
dose-dependent inhibition of development of intersegmental vessels [1]: dose-dependent effect
cell number compared to control [2]: did not significantly reduce cell number
levels of ENA-78 secreted [3]: significantly reduced
levels of GRO-α secreted [3]: significantly reduced
levels of IL-1β secreted (printed IL-13, IL-1) [3]: significantly reduced
levels of IL-8 secreted [3]: significantly reduced
levels of MCP-1 secreted [3]: significantly reduced; also recorded: significant effects
levels of TNFα secreted [3]: significantly reduced
levels of VEGF secreted [3]: significantly reduced; also recorded: significant effects
